Measured values taken from US8329913B2, “Carbazole derivative, solvate thereof, or pharmaceutically acceptable salt thereof” (Zeria Pharmaceutical Co., Ltd., priority 2004, dated 2012).

Target: T1, human PPARγ (Homo sapiens, UniProt P37231)
T1 construct: 1.6 kb of fragment of the prepared plasmid pGEMT-hPPARg2 including human PPARγ gene; expressed in transfected cells; host or cells: CV-1 cells, transient transfection with pCI-hPPARg2, pCI-hRXRa and the reporter pGL3-PPRE3-TK
T1 sequence (P37231 1-505): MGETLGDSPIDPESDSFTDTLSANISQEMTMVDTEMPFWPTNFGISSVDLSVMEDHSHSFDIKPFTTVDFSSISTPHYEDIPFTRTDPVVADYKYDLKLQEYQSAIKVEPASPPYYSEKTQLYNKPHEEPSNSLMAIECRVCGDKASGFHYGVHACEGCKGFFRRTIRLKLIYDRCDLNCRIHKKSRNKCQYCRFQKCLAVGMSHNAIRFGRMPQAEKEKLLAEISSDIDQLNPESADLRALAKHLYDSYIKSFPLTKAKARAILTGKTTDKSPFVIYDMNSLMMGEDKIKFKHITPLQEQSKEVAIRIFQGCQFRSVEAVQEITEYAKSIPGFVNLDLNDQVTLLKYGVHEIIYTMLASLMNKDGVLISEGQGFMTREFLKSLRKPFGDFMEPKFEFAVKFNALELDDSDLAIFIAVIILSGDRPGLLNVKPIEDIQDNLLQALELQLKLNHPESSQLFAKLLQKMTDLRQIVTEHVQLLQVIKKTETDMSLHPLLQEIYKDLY
T1 sequence (P19793 1-462 partner): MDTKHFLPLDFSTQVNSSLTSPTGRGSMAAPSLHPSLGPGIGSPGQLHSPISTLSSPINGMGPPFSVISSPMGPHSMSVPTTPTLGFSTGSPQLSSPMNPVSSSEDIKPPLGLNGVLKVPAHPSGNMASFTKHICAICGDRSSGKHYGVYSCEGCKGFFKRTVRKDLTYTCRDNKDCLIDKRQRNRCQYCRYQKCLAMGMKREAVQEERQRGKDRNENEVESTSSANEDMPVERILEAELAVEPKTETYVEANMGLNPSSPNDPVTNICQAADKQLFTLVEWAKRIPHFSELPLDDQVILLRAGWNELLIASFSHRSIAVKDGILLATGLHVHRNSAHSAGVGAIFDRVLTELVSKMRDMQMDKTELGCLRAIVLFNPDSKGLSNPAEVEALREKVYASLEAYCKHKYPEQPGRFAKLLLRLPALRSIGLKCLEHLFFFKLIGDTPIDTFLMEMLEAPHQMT
Test: Human PPARγ antagonist assay (luciferase reporter in transfected CV-1 cells)
Type: cell-based
Conditions: CV-1 cells expressing human PPARγ and RXRα with reporter plasmid; pioglitazone 1 μM as stimulant; 24 hours; read-out: Human PPARγ antagonist activities, Inhibition IC50
Outline: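 CV-1 cells transiently co-transfected with human PPARγ2, RXRα, PPRE3-TK firefly luciferase and renilla plasmids were exposed 24 h at 37 °C to compound (10 nM–3 μM) plus 1 μM pioglitazone. Firefly/renilla ratios were scaled between pioglitazone alone (0%) and no addition (100%), and IC50 was taken at 50% inhibition.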

COc1cc(Cn2c3ccccc3c3c(O[C@H](C)C(=O)[O-])cccc32)ccc1OCc1nc(-c2ccccc2)oc1C.[Na+] [Example 43, sodium (R)-2-{9-[3-methoxy-4-((5-methyl-2-phenyl-oxazole-4-yl)methoxy)-benzyl]-9H-carbazole-4-yloxy}propionate]
IC50: 1120 nM
